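Assay format: 96-well plates, 48-hour exposure. GI50 marks 50% less growth. TGI: total growth inhibition.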
How the values were obtained:
Assay in all cases: NCI-60 cell line screen, 48 h
OVCAR-5 ovarian = system: OVCAR-5 ovarian
HL-60(TB) leukemia = system: HL-60(TB) leukemia
SK-MEL-5 melanoma = system: SK-MEL-5 melanoma
HCT-15 colon = system: HCT-15 colon
ACHN renal = system: ACHN renal
NCI-H460 lung = system: NCI-H460 lung
SK-MEL-28 melanoma = system: SK-MEL-28 melanoma
SF-539 CNS = system: SF-539 CNS
K-562 leukemia = system: K-562 leukemia
RPMI-8226 leukemia = system: RPMI-8226 leukemia
HCC-2998 colon = system: HCC-2998 colon
UACC-257 melanoma = system: UACC-257 melanoma
DU-145 prostate = system: DU-145 prostate
IGROV1 ovarian = system: IGROV1 ovarian
MDA-N = system: MDA-N
NCI-H23 lung = system: NCI-H23 lung
SF-268 CNS = system: SF-268 CNS
MOLT-4 leukemia = system: MOLT-4 leukemia
OVCAR-3 ovarian = system: OVCAR-3 ovarian
MDA-MB-231 breast = system: MDA-MB-231 breast
UO-31 renal = system: UO-31 renal
SNB-75 CNS = system: SNB-75 CNS
HOP-62 NSCLC = system: HOP-62 NSCLC
T-47D breast = system: T-47D breast
LOX IMVI melanoma = system: LOX IMVI melanoma
CCRF-CEM leukemia = system: CCRF-CEM leukemia
HT29 colon = system: HT29 colon
SR leukemia = system: SR leukemia
NCI-H226 lung = system: NCI-H226 lung
SF-295 CNS = system: SF-295 CNS
SNB-19 CNS = system: SNB-19 CNS
SN12C renal = system: SN12C renal
HCT-116 colon = system: HCT-116 colon
NCI/ADR-RES ovarian = system: NCI/ADR-RES ovarian
A549 NSCLC = system: A549 NSCLC
786-0 renal = system: 786-0 renal
EKVX NSCLC = system: EKVX NSCLC
MDA-MB-435 = system: MDA-MB-435
MCF7 breast = system: MCF7 breast
RXF 393 renal = system: RXF 393 renal
MALME-3M melanoma = system: MALME-3M melanoma
PC-3 prostate = system: PC-3 prostate
NCI-H522 lung = system: NCI-H522 lung
HS 578T breast = system: HS 578T breast
SW-620 colon = system: SW-620 colon
A498 renal = system: A498 renal
OVCAR-8 ovarian = system: OVCAR-8 ovarian
M14 melanoma = system: M14 melanoma
KM12 colon = system: KM12 colon
HOP-92 NSCLC = system: HOP-92 NSCLC
U251 CNS = system: U251 CNS
COLO 205 colon = system: COLO 205 colon
SK-OV-3 ovarian = system: SK-OV-3 ovarian
TK-10 renal = system: TK-10 renal
CAKI-1 renal = system: CAKI-1 renal
UACC-62 melanoma = system: UACC-62 melanoma
SK-MEL-2 melanoma = system: SK-MEL-2 melanoma
OVCAR-4 ovarian = system: OVCAR-4 ovarian
BT-549 breast = system: BT-549 breast

## COC(=O)C1=Cc2cc(OC)c(O)cc2[C@@H](c2ccc(O)c(OC)c2)[C@@H]1C(=O)OC
OVCAR-5 ovarian
  TGI: > 100 µM
HL-60(TB) leukemia
  TGI: > 100 µM
SK-MEL-5 melanoma
  TGI: > 100 µM
HCT-15 colon
  TGI: > 100 µM
ACHN renal
  TGI: > 100 µM
NCI-H460 lung
  TGI: > 100 µM
SK-MEL-28 melanoma
  TGI: > 100 µM
SF-539 CNS
  TGI: > 100 µM
K-562 leukemia
  TGI: > 100 µM
RPMI-8226 leukemia
  TGI: > 100 µM
HCC-2998 colon
  TGI: > 100 µM
UACC-257 melanoma
  TGI: > 100 µM
DU-145 prostate
  TGI: > 100 µM
IGROV1 ovarian
  TGI: > 100 µM
MDA-N
  TGI: > 100 µM
NCI-H23 lung
  TGI: > 100 µM
SF-268 CNS
  TGI: > 100 µM
MOLT-4 leukemia
  TGI: > 100 µM
OVCAR-3 ovarian
  TGI: > 100 µM
MDA-MB-231 breast
  TGI: > 100 µM
UO-31 renal
  TGI: > 100 µM
SNB-75 CNS
  TGI: > 100 µM
HOP-62 NSCLC
  TGI: > 100 µM
T-47D breast
  TGI: > 100 µM
LOX IMVI melanoma
  TGI: > 100 µM
CCRF-CEM leukemia
  TGI: > 100 µM
HT29 colon
  TGI: > 100 µM
SR leukemia
  TGI: > 100 µM
NCI-H226 lung
  TGI: > 100 µM
SF-295 CNS
  TGI: > 100 µM
SNB-19 CNS
  TGI: > 100 µM
SN12C renal
  TGI: > 100 µM
HCT-116 colon
  TGI: > 100 µM
NCI/ADR-RES ovarian
  TGI: > 100 µM
A549 NSCLC
  TGI: > 100 µM
786-0 renal
  TGI: > 100 µM
EKVX NSCLC
  TGI: > 100 µM
MDA-MB-435
  TGI: > 100 µM
MCF7 breast
  TGI: > 100 µM
RXF 393 renal
  TGI: > 100 µM
MALME-3M melanoma
  TGI: > 100 µM
PC-3 prostate
  TGI: > 100 µM
NCI-H522 lung
  TGI: > 100 µM
HS 578T breast
  TGI: > 100 µM
SW-620 colon
  TGI: > 100 µM
A498 renal
  TGI: > 100 µM
OVCAR-8 ovarian
  TGI: > 100 µM
M14 melanoma
  TGI: > 100 µM
KM12 colon
  TGI: > 100 µM
HOP-92 NSCLC
  TGI: > 100 µM
U251 CNS
  TGI: > 100 µM
COLO 205 colon
  TGI: > 100 µM

## CCOC(=O)[C@@H]1ON2O[C@H](OC3CCCC3(c3ccccc3)c3ccccc3)C[C@H]3OC(=O)[C@@H]1C32 (stereo not given in full)
OVCAR-5 ovarian
  TGI: > 100 µM
SK-OV-3 ovarian
  TGI: > 100 µM
HL-60(TB) leukemia
  TGI: 59.1 µM
SK-MEL-5 melanoma
  TGI: > 100 µM
HCT-15 colon
  TGI: > 100 µM
ACHN renal
  TGI: > 100 µM
NCI-H460 lung
  TGI: > 100 µM
SF-539 CNS
  TGI: > 100 µM
K-562 leukemia
  TGI: > 100 µM
RPMI-8226 leukemia
  TGI: > 100 µM
HCC-2998 colon
  TGI: > 100 µM
UACC-257 melanoma
  TGI: > 100 µM
DU-145 prostate
  TGI: > 100 µM
IGROV1 ovarian
  TGI: > 100 µM
MDA-N
  TGI: > 100 µM
NCI-H23 lung
  TGI: 65.8 µM
SF-268 CNS
  TGI: > 100 µM
TK-10 renal
  TGI: > 100 µM
MOLT-4 leukemia
  TGI: > 100 µM
OVCAR-3 ovarian
  TGI: > 100 µM
MDA-MB-231 breast
  TGI: > 100 µM
UO-31 renal
  TGI: > 100 µM
SNB-75 CNS
  TGI: > 100 µM
CAKI-1 renal
  TGI: 46 µM
HOP-62 NSCLC
  TGI: > 100 µM
T-47D breast
  TGI: 80 µM
LOX IMVI melanoma
  TGI: 86.7 µM
CCRF-CEM leukemia
  TGI: 78.3 µM
HT29 colon
  TGI: > 100 µM
SR leukemia
  TGI: 99.2 µM
NCI-H226 lung
  TGI: > 100 µM
SF-295 CNS
  TGI: > 100 µM
SN12C renal
  TGI: > 100 µM
HCT-116 colon
  TGI: > 100 µM
NCI/ADR-RES ovarian
  TGI: > 100 µM
A549 NSCLC
  TGI: 76.6 µM
786-0 renal
  TGI: > 100 µM
EKVX NSCLC
  TGI: > 100 µM
MDA-MB-435
  TGI: 97.9 µM
MCF7 breast
  TGI: 91.4 µM
RXF 393 renal
  TGI: 36.5 µM
UACC-62 melanoma
  TGI: > 100 µM
NCI-H522 lung
  TGI: > 100 µM
HS 578T breast
  TGI: > 100 µM
SW-620 colon
  TGI: > 100 µM
A498 renal
  TGI: 95.9 µM
OVCAR-8 ovarian
  TGI: > 100 µM
M14 melanoma
  TGI: > 100 µM
KM12 colon
  TGI: 85.4 µM
HOP-92 NSCLC
  TGI: > 100 µM
U251 CNS
  TGI: > 100 µM
COLO 205 colon
  TGI: > 100 µM

## CC1(C)CC(n2cnc(-c3ccc(F)cc3)c2-c2ccnc(N)n2)CC(C)(C)N1
OVCAR-5 ovarian
  GI50: 24.4 µM
  TGI: > 25 µM
SK-OV-3 ovarian
  GI50: 23.6 µM
  TGI: > 25 µM
HL-60(TB) leukemia
  GI50: > 25 µM
  TGI: > 25 µM
SK-MEL-5 melanoma
  GI50: > 16.2 µM
  TGI: > 25 µM
HCT-15 colon
  GI50: 17.7 µM
  TGI: > 25 µM
ACHN renal
  GI50: 10.3 µM
  TGI: > 25 µM
NCI-H460 lung
  GI50: 11.9 µM
  TGI: > 25 µM
SK-MEL-28 melanoma
  GI50: > 25 µM
  TGI: > 25 µM
SF-539 CNS
  GI50: > 25 µM
  TGI: > 25 µM
K-562 leukemia
  GI50: > 24.1 µM
  TGI: > 25 µM
RPMI-8226 leukemia
  GI50: > 25 µM
  TGI: > 25 µM
HCC-2998 colon
  GI50: > 25 µM
  TGI: > 25 µM
UACC-257 melanoma
  GI50: > 25 µM
  TGI: > 25 µM
DU-145 prostate
  GI50: > 25 µM
  TGI: > 25 µM
IGROV1 ovarian
  GI50: 24.7 µM
  TGI: > 25 µM
NCI-H23 lung
  GI50: > 25 µM
  TGI: > 25 µM
SF-268 CNS
  GI50: 18.7 µM
  TGI: > 25 µM
TK-10 renal
  GI50: 16.1 µM
  TGI: > 25 µM
MOLT-4 leukemia
  GI50: 17.4 µM
  TGI: > 25 µM
SK-MEL-2 melanoma
  GI50: > 25 µM
  TGI: > 25 µM
OVCAR-3 ovarian
  GI50: > 25 µM
  TGI: > 25 µM
MDA-MB-231 breast
  GI50: > 22.7 µM
  TGI: > 25 µM
UO-31 renal
  GI50: 16.6 µM
  TGI: > 25 µM
SNB-75 CNS
  GI50: > 16.5 µM
  TGI: > 25 µM
CAKI-1 renal
  GI50: > 25 µM
  TGI: > 25 µM
HOP-62 NSCLC
  GI50: > 16.8 µM
  TGI: > 25 µM
T-47D breast
  GI50: 24.3 µM
  TGI: > 25 µM
LOX IMVI melanoma
  GI50: > 19.7 µM
  TGI: > 25 µM
CCRF-CEM leukemia
  GI50: > 25 µM
  TGI: > 25 µM
HT29 colon
  GI50: 11.1 µM
  TGI: > 25 µM
SR leukemia
  GI50: > 19.3 µM
  TGI: > 25 µM
NCI-H226 lung
  GI50: > 13.9 µM
  TGI: > 25 µM
SF-295 CNS
  GI50: > 25 µM
  TGI: > 25 µM
OVCAR-4 ovarian
  GI50: 7.54 µM
  TGI: > 25 µM
SNB-19 CNS
  GI50: > 25 µM
  TGI: > 25 µM
SN12C renal
  GI50: 17.9 µM
  TGI: > 25 µM
HCT-116 colon
  GI50: 15.1 µM
  TGI: > 25 µM
NCI/ADR-RES ovarian
  GI50: > 25 µM
  TGI: > 25 µM
A549 NSCLC
  GI50: 12.5 µM
  TGI: > 25 µM
786-0 renal
  GI50: > 25 µM
  TGI: > 25 µM
EKVX NSCLC
  GI50: > 25 µM
  TGI: > 25 µM
MDA-MB-435
  GI50: > 25 µM
  TGI: > 25 µM
MCF7 breast
  GI50: 6.01 µM
  TGI: > 19.6 µM
RXF 393 renal
  GI50: > 24.1 µM
  TGI: > 25 µM
MALME-3M melanoma
  GI50: > 25 µM
  TGI: > 25 µM
PC-3 prostate
  GI50: > 25 µM
  TGI: > 25 µM
UACC-62 melanoma
  GI50: > 25 µM
  TGI: > 25 µM
NCI-H522 lung
  GI50: 17.6 µM
  TGI: > 25 µM
HS 578T breast
  GI50: > 25 µM
  TGI: > 25 µM
SW-620 colon
  GI50: 12.1 µM
  TGI: > 25 µM
A498 renal
  GI50: > 25 µM
  TGI: > 25 µM
OVCAR-8 ovarian
  GI50: 15.6 µM
  TGI: > 25 µM
M14 melanoma
  GI50: > 25 µM
  TGI: > 25 µM
BT-549 breast
  GI50: > 25 µM
  TGI: > 25 µM
KM12 colon
  GI50: 18.1 µM
  TGI: > 25 µM
HOP-92 NSCLC
  GI50: 7.19 µM
  TGI: > 25 µM
U251 CNS
  GI50: > 20.1 µM
  TGI: > 25 µM
COLO 205 colon
  GI50: 12.7 µM
  TGI: > 25 µM

— PubChem BioAssay (NCI)
